Experimental data: ChEMBL document CHEMBL3272133, “1-[4-(4-Chlorophenyl)-2-(2,6-dichlorophenylthio)-n-butyl]-1H-imidazole nitrate, a new potent antifungal agent” (J Med Chem, 1978)
Active and inactive are the calls of the source. No cut-off for these calls is given here.

Legend:
Candida albicans [1] = experiment: Antifungal activity against Candida albicans infected in mouse assessed as noninfected animals at 1% formulation in neat PEG 400 solution administered vaginally bid for 4 days measured 6 hrs post last dose relative to placebo; format: functional
Candida albicans [2] = experiment: Antifungal activity against Candida albicans infected in mouse assessed as noninfected animals at 1% formulation in neat PEG 400 solution administered vaginally bid for 4 days measured on day 7 relative to placebo; format: functional
Candida albicans [3] = experiment: Antifungal activity against Candida albicans infected in mouse assessed as noninfected animals at 2% formulation in neat PEG 400 solution administered vaginally bid for 4 days measured on day 7 relative to placebo; format: functional
Candida albicans [4] = experiment: Antifungal activity against Candida albicans ATCC 14053 assessed as growth inhibition by broth dilution method; format: functional
Candida albicans [5] = experiment: Antifungal activity against Candida albicans infected in mouse assessed as noninfected animals at 4% formulation in neat PEG 400 solution administered vaginally bid for 4 days measured 6 hrs post last dose relative to placebo; format: functional
Candida albicans [6] = experiment: Antifungal activity against mixed infection of Candida albicans infected in mouse assessed as noninfected animals at 0.5% formulation administered vaginally bid for 4 days measured on day 7 relative to placebo; format: functional
Staphylococcus aureus [7] = experiment: Antibacterial activity against Staphylococcus aureus No. 14154 assessed as growth inhibition by broth microdilution method; format: functional
[8] = tested on: Trichophyton mentagrophytes; experiment: Antifungal activity against Trichophyton mentagrophytes infected in guinea pig assessed as noninfected animals at 0.5% formulation in steryl alcohol, cetyl alcohol, Span 60, Tween 60, propylene glycol, mineral oil, and water administered qd for 5 days measured on day 14; format: functional
[9] = tested on: Trichophyton mentagrophytes; experiment: Antifungal activity against Trichophyton mentagrophytes infected in guinea pig assessed as noninfected animals at 0.5% formulation in steryl alcohol, cetyl alcohol, Span 60, Tween 60, propylene glycol, mineral oil, and water administered qd for 5 days measured on day 4; format: functional
[10] = tested on: Trichophyton mentagrophytes; experiment: Antifungal activity against Trichophyton mentagrophytes infected in guinea pig assessed as noninfected animals at 0.5% formulation in steryl alcohol, cetyl alcohol, Span 60, Tween 60, propylene glycol, mineral oil, and water administered qd for 5 days measured on day 7; format: functional
Candida albicans [11] = experiment: Antifungal activity against Candida albicans infected in mouse assessed as noninfected animals at 2% formulation in modified PEG 400 solution administered vaginally bid for 4 days measured on day 7 relative to placebo; format: functional, organism-based
Candida albicans [12] = experiment: Antifungal activity against mixed infection of Candida albicans infected in mouse assessed as noninfected animals at 0.2% formulation administered vaginally bid for 4 days measured 6 hrs post last dose relative to placebo; format: functional
Candida albicans [13] = experiment: Antifungal activity against Candida albicans ATCC 10231 assessed as growth inhibition by broth dilution method; format: functional
Candida albicans [14] = experiment: Antifungal activity against mixed infection of Candida albicans infected in mouse assessed as noninfected animals at 2% formulation administered vaginally bid for 4 days measured on day 7 relative to placebo; format: functional
Candida albicans [15] = experiment: Antifungal activity against mixed infection of Candida albicans infected in mouse assessed as noninfected animals at 1% formulation administered vaginally bid for 4 days measured 6 hrs post last dose relative to placebo; format: functional
Enterococcus faecalis = experiment: Antibacterial activity against Streptococcus faecalis No. 8043-2 assessed as growth inhibition by broth microdilution method; format: functional
Candida albicans [16] = experiment: Antifungal activity against mixed infection of Candida albicans infected in mouse assessed as noninfected animals at 1% formulation administered vaginally bid for 4 days measured on day 7 relative to placebo; format: functional
Candida albicans [17] = experiment: Antifungal activity against mixed infection of Candida albicans infected in mouse assessed as noninfected animals at 2% commercial cream formulation administered vaginally bid for 4 days measured on day 7 relative to placebo; format: functional
Staphylococcus aureus [18] = experiment: Antibacterial activity against Staphylococcus aureus No. 6538 P assessed as growth inhibition by broth microdilution method; format: functional
Epidermophyton floccosum = experiment: Antifungal activity against Epidermophyton floccosum assessed as growth inhibition by agar dilution method; format: functional
Microsporum canis = experiment: Antifungal activity against Microsporum canis assessed as growth inhibition by agar dilution method; format: functional
[19] = Antifungal activity against Trichophyton concentricum assessed as growth inhibition by agar dilution method; format: functional
Candida albicans [20] = experiment: Antifungal activity against mixed infection of Candida albicans infected in mouse assessed as noninfected animals at 0.2% formulation administered vaginally bid for 4 days measured on day 7 relative to placebo; format: functional
Cryptococcus neoformans = experiment: Antifungal activity against Cryptococcus neoformans assessed as growth inhibition by broth dilution method; format: functional
Candida albicans [21] = experiment: Antifungal activity against Candida albicans infected in mouse assessed as noninfected animals at 2% formulation in neat PEG 400 solution administered vaginally bid for 4 days measured 6 hrs post last dose relative to placebo; format: functional
Candida albicans [22] = experiment: Antifungal activity against Candida albicans infected in mouse assessed as noninfected animals at 0.5% formulation in neat PEG 400 solution administered vaginally bid for 4 days measured on day 7 relative to placebo; format: functional
[23] = tested on: Trichophyton mentagrophytes; experiment: Antifungal activity against Trichophyton mentagrophytes assessed as growth inhibition by agar dilution method; format: functional
Streptococcus pyogenes = experiment: Antibacterial activity against Streptococcus pyogenes No. 8668 assessed as growth inhibition by broth microdilution method; format: functional
Candida albicans [24] = experiment: Antifungal activity against mixed infection of Candida albicans infected in mouse assessed as noninfected animals at 2% formulation administered vaginally bid for 4 days measured 6 hrs post last dose relative to placebo; format: functional
Trichophyton tonsurans = experiment: Antifungal activity against Trichophyton tonsurans assessed as growth inhibition by agar dilution method; format: functional
Nannizzia gypsea = experiment: Antifungal activity against Microsporum gypseum assessed as growth inhibition by agar dilution method; format: functional
Candida albicans [25] = experiment: Antifungal activity against Candida albicans infected in mouse assessed as noninfected animals at 0.5% formulation in neat PEG 400 solution administered vaginally bid for 4 days measured 6 hrs post last dose relative to placebo; format: functional
Candida albicans [26] = experiment: Antifungal activity against mixed infection of Candida albicans infected in mouse assessed as noninfected animals at 2% commercial cream formulation administered vaginally bid for 4 days measured 6 hrs post last dose relative to placebo; format: functional
Trichophyton rubrum = experiment: Antifungal activity against Trichophyton rubrum assessed as growth inhibition by agar dilution method; format: functional
Candida albicans [27] = experiment: Antifungal activity against mixed infection of Candida albicans infected in mouse assessed as noninfected animals at 0.5% formulation administered vaginally bid for 4 days measured 6 hrs post last dose relative to placebo; format: functional
Candida albicans [28] = experiment: Antifungal activity against Candida albicans infected in mouse assessed as noninfected animals at 4% formulation in neat PEG 400 solution administered vaginally bid for 4 days measured on day 7 relative to placebo; format: functional

Clc1ccccc1C(c1ccccc1)(c1ccccc1)n1ccnc1 [CLOTRIMAZOLE]
Activity (Candida albicans [1]): 85%
Activity (Candida albicans [2]): 55%

Clc1ccc(COC(Cn2ccnc2)c2ccc(Cl)cc2Cl)c(Cl)c1 (stereo not drawn) [MICONAZOLE]
Activity (Candida albicans [3]): 37%
GI (Candida albicans [4]): 30 µg/mL
Activity (Candida albicans [5]): 75%
Activity (Candida albicans [6]): 11%
GI (Staphylococcus aureus [7]): 12.5 µg/mL
Activity [8]: 10%
Activity [9]: 70%
Activity [10]: 80%
Activity (Candida albicans [11]): inactive
Activity (Candida albicans [12]): 15%
GI (Candida albicans [13]): 30 µg/mL
Activity (Candida albicans [14]): 15%
Activity (Candida albicans [15]): 20%
GI (Enterococcus faecalis): 3.12 µg/mL
Activity (Candida albicans [16]): 25%
Activity (Candida albicans [17]): 25%
GI (Staphylococcus aureus [18]): 6.25 µg/mL
GI (Epidermophyton floccosum): 5 µg/mL
GI (Microsporum canis): 0.5 µg/mL
Activity (Candida albicans [1]): 60%
GI [19]: 0.5 µg/mL
Activity (Candida albicans [20]): 20%
GI (Cryptococcus neoformans): <=0.3 ug ml-1
Activity (Candida albicans [21]): 50%
Activity (Candida albicans [22]): 25%
GI [23]: 0.5 µg/mL
GI (Streptococcus pyogenes): <=0.0008 ug ml-1
Activity (Candida albicans [24]): 10%
Activity (Candida albicans [2]): 25%
GI (Trichophyton tonsurans): 0.5 µg/mL
GI (Nannizzia gypsea): 0.05 µg/mL
Activity (Candida albicans [25]): 30%
Activity (Candida albicans [26]): 33%
GI (Trichophyton rubrum): 0.5 µg/mL
Activity (Candida albicans [27]): 20%
Activity (Candida albicans [28]): 70%
